In US20160278367A1, “Pesticidal Composition” (priority 2013, published 2016):

Assays:
hematophagous arthropods = experiment: terpenes fatal to hematophagous arthropods (test not described)
[1] = solution and stable suspension of citral; assay type: physicochemical
Source text: In one embodiment the terpene component includes one or more terpenes which contain oxygen. Citral, for example citral 95, is an oxygenated […], C10H16O CAS No. 5392-40-5 (3,7-dimethyl-2,6-octadien-1-a1). A stable suspension of citral can be formed up to about 2500 ppm. Citral can be made into a solution at up to about 500 ppm. A stable suspension of hollow glucan particles incorporating citral of 25 ppt citral can be made.
In one embodiment the terpene component includes one or more terpenes which contain oxygen. Citral, for example citral 95, is an oxygenated […], C10H16O CAS No. 5392-40-5 (3,7-dimethyl-2,6-octadien-1-a1) . A stable suspension of citral can be formed up to about 2500 ppm. Citral can be made into a solution at up to about 500 ppm. A stable suspension of hollow glucan particles incorporating citral of 25 ppt citral can be made.

Row | SMILES | fatal to hematophagous arthropods (hematophagous arthropods) | citral can be made into a solution at up to ([1]; solution) | stable suspension of citral can be formed up to ([1]; suspension)
1 | C=C(C)C1CC=C(C)C(=O)C1 (stereo not drawn) [carvone] | fatal |  | 
2 | C=CCc1ccc(O)c(OC)c1 [eugenol] | fatal |  | 
3 | C=CC(=C)CCC=C(C)C [myrcene] | fatal |  | 
4 | CC(C)=CCCC(C)=CC=O (mixture of isomers) [Citral, 3,7-dimethyl-2,6-octadien-1-a1] |  | about 500 ppm | about 2500 ppm
5 | C=C(C)[C@H]1CC=C(C)CC1 [redistilled limonene, limonene] | fatal |  | 
6 | CC(C)=CCC/C(C)=C/CO [geraniol] | fatal |  | 
7 | CC(=O)/C=C/C1=C(C)CCCC1(C)C [beta-ionone] | fatal |  | 
8 | C=CC(C)(O)CCC=C(C)C (stereo not drawn) [linalool] | fatal |  | 
